Data on 40 compounds can be found in patent US10617680B2 (CELGENE QUANTICEL RESEARCH, INC., priority 2017, dated 2020).

Broadly, the IC50 is the concentration that gives 50% inhibition.

Some results are limits rather than exact numbers.

The target in the first experiment is CBP (Homo sapiens (Human), UniProt Q92793). Briefly: In vitro CBP inhibition (AlphaScreen, biotinylated H4-tetraacetyl peptide). Format: binding.
CBP, sequence (Q92793 1081-1197): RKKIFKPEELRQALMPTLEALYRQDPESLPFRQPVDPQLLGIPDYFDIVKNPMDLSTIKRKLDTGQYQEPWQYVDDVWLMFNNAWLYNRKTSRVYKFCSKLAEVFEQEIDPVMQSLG
Conditions: not given
The method, then:
The CBP-inhibitory activity of the compounds described herein was determined by calculating the IC50. More specifically, CBP inhibitor activity was assayed as follows: CBP was cloned and expressed in E. coli as His-tag protein and purified by Nickel affinity and gel-filtration chromatography. […] CBP binding and inhibition is assessed by monitoring the interaction of biotinylated H4-tetraacetyl peptide (AnaSpec, H4K5/8/12/16(Ac), biotin-labeled) with the target using the AlphaScreen technology (Perkin Elmer). In a 384-well ProxiPlate CBP (50 nM final) was combined with peptide (20 nM final) in 50 mM HEPES (pH 7.3), 10 mM NaCl, 0.25 mM TCEP, 0.1% (w/v) BSA, and 0.005% (w/v) Brij-35 either in the presence of DMSO (final 0.4% DMSO) or compound dilution series in DMSO. After 20 min incubation at room temp, Alpha-streptavidin donor beads and Nickel Chelate acceptor beads were added to a final concentration of 5 μg/mL.
The ability of the compounds disclosed herein to inhibit CBP activity was quantified and the respective IC50 value determined.
`Cn1cc(-c2cnn(Cc3ccccc3)c2)ccc1=O` [Example 1, 5-(1-benzyl-1H-pyrazol-4-yl)-1-methylpyridin-2(1H)-one] returned a half-maximal inhibitory concentration (IC50) of 500 to 5000 nM. `Cn1cc(-c2cnn(C(c3ccccc3)C3CC3)c2)ccc1=O` (stereo not shown) [Example 2] had a 50% inhibitory concentration (IC50) of 500 to 5000 nM.

Still in this experiment, the particulars now being: AlphaScreen, Table 29; read-out: CBP IC50.
As to `CC(=O)NC[C@@H]1CCN(c2cc(=O)n(C)cc2-c2cnn(Cc3ccccc3)c2)C1` (stereo in doubt) [Example 89, N-{1-[5-(1-benzyl-1H-pyrazol-4-yl)-1-methyl-2-oxo-1,2-dihydro-pyridin-4-yl]-pyrrolidin-3-ylmethyl}-acetamide], the IC50 is below 500 nM.

As for `CC(=O)NC[C@H]1CCN(c2cc(=O)n(C)cc2-c2cnn(Cc3ccccc3)c2)C1` (stereo in doubt) [Example 90, N-{1-[5-(1-benzyl-1H-pyrazol-4-yl)-1-methyl-2-oxo-1,2-dihydro-pyridin-4-yl]-pyrrolidin-3-yl-methyl}-acetamide], the half-maximal inhibitory concentration (IC50) lay within 500 to 5000 nM. On the same count and under the same terms, in the case of `Cn1cc(-c2cnn(Cc3ccccc3C#N)c2)ccc1=O` [Example 3, 2-((4-(1-methyl-6-oxo-1,6-dihydropyridin-3-yl)-1H-pyrazol-1-yl)methyl)benzonitrile] it was 500 to 5000 nM.

As for `Cn1cc(-c2cnn(Cc3cccc(C#N)c3)c2)ccc1=O` [Example 4, 3-((4-(1-methyl-6-oxo-1,6-dihydropyridin-3-yl)-1H-pyrazol-1-yl)methyl)benzonitrile], the IC50 fell in the range of 500 to 5000 nM. Regarding `Cn1cc(-c2cnn(Cc3ccccn3)c2)ccc1=O` [Example 5, 1-methyl-5-(1-(pyridin-2-ylmethyl)-1H-pyrazol-4-yl)pyridin-2(1H)-one], the half-maximal inhibitory concentration (IC50) lay in the range of 500 to 5000 nM.

With `Cn1cc(-c2cnn(Cc3ccc(F)cc3)c2)ccc1=O` [Example 6, 5-(1-(4-fluorobenzyl)-1H-pyrazol-4-yl)-1-methylpyridin-2(1H)-one], the half-maximal inhibitory concentration (IC50) fell in the range of 500 to 5000 nM. Regarding `Cc1cc(=O)n(C)cc1-c1cnn(Cc2ccccc2)c1` [Example 7, 5-(1-benzyl-1H-pyrazol-4-yl)-1,4-dimethyl-pyridin-2(1H)-one], the IC50 is below 500 nM. In the case of `Cn1cc(-c2cnn(Cc3ccccc3)c2)c2ccccc2c1=O` [Example 8, 4-(1-benzyl-1H-pyrazol-4-yl)-2-methyliso-quinolin-1(2H)-one], the IC50 was below 500 nM. As to `Cn1cc(-c2cnn(Cc3ccccc3)c2)c2cnccc2c1=O` [Example 9, 4-(1-benzyl-1H-pyrazol-4-yl)-2-methyl-2,6-naphthyridin-1(2H)-one], the half-maximal inhibitory concentration (IC50) was below 500 nM.

In the case of `CCn1cc(-c2cnn(Cc3ccccc3)c2)ccc1=O` [Example 10, 5-(1-benzyl-1H-pyrazol-4-yl)-1-ethylpyridin-2(1H)-one], the IC50 lay in the range of 500 to 5000 nM. On the same count and under the same terms, the result for `Cc1cc(-c2cnn(C(C)c3cccc(C(F)F)c3)c2)cn(C)c1=O` (stereo not shown) [Example 11, 5-(1-(1-(3-(difluoro-methyl)phenyl)ethyl)-1H-pyrazol-4-yl)-1,3-dimethylpyridin-2(1H)-one] reads below 500 nM; that for `CC(c1ccccc1)n1cc(-c2ccc(=O)n(C)c2)cn1` (stereo not shown) [Example 12, 1-methyl-5-(1-(1-phenylethyl)-1H-pyrazol-4-yl)pyridin-2(1H)-one], 500 to 5000 nM. Still for that read-out and setting: in the case of `Cc1cc(-c2cnn(Cc3ccccc3)c2)cn(C)c1=O` [Example 13, 5-(1-benzyl-1H-pyrazol-4-yl)-1,3-dimethyl-pyridin-2(1H)-one] it was below 500 nM. Regarding `CC(c1cccc(C#N)c1)n1cc(-c2ccc(=O)n(C)c2)cn1` (stereo not shown) [Example 16, 3-(1-(4-(1-methyl-6-oxo-1,6-dihydropyridin-3-yl)-1H-pyrazol-1-yl)ethyl)benzonitrile], the IC50 lay in the range of 500 to 5000 nM. As for `Cc1cc(-c2cnn(C(C)c3ccccc3)c2)cn(C)c1=O` (stereo not shown) [Example 17, 1,3-dimethyl-5-(1-(1-phenylethyl)-1H-pyrazol-4-yl)pyridin-2(1H)-one], the concentration for half-maximal inhibition (IC50) is below 500 nM.

For the compound `CC(c1ccccc1Cl)n1cc(-c2ccc(=O)n(C)c2)cn1` (stereo not shown) [Example 19, 5-(1-(1-(2-chlorophenyl)ethyl)-1H-pyrazol-4-yl)-1-methyl-pyridin-2(1H)-one], the concentration for half-maximal inhibition (IC50) was below 500 nM. Consider `Cc1cccc(C(C)n2cc(-c3ccc(=O)n(C)c3)cn2)c1` (stereo not shown) [Example 20, 1-methyl-5-(1-(1-(m-tolyl)ethyl)-1H-pyrazol-4-yl)pyridin-2(1H)-one], for which the half-inhibitory concentration (IC50) is below 500 nM. The same measure, in the same setting: the result for `CC(c1ccccc1)n1cc(-c2cn(C)c(=O)cc2F)cn1` (stereo not shown) [Example 21, 4-fluoro-1-methyl-5-(1-(1-phenylethyl)-1H-pyrazol-4-yl) pyridin-2(1H)-one] reads 500 to 5000 nM; that for `Cc1ccccc1C(C)n1cc(-c2ccc(=O)n(C)c2)cn1` (stereo not shown) [Example 22, 1-methyl-5-(1-(1-(o-tolyl)ethyl)-1H-pyrazol-4-yl)pyridin-2(1H)-one], below 500 nM; that for `CC(c1cccc(Cl)c1)n1cc(-c2ccc(=O)n(C)c2)cn1` (stereo not shown) [Example 23, 5-(1-(1-(3-chlorophenyl)ethyl)-1H-pyrazol-4-yl)-1-methyl-pyridin-2(1H)-one], below 500 nM. Same read-out and setting: in the case of `CC(c1cccnc1)n1cc(-c2ccc(=O)n(C)c2)cn1` (stereo not shown) [Example 24, 1-methyl-5-(1-(1-(pyridin-3-yl)ethyl)-1H-pyrazol-4-yl)pyridin-2(1H)-one] it was 500 to 5000 nM; in that of `CC(c1ccc(C#N)cc1)n1cc(-c2ccc(=O)n(C)c2)cn1` (stereo not shown) [Example 25, 4-(1-(4-(1-methyl-6-oxo-1,6-dihydropyridin-3-yl)-1H-pyrazol-1-yl)ethyl)benzonitrile], 500 to 5000 nM; in that of `CC(c1ccccc1)n1cc(-c2cc(F)c(=O)n(C)c2)cn1` (stereo not shown) [Example 26, 3-fluoro-1-methyl-5-(1-(1-phenylethyl)-1H-pyrazol-4-yl) pyridin-2(1H)-one], 500 to 5000 nM.

Take `COc1ccccc1C(C)n1cc(-c2ccc(=O)n(C)c2)cn1` (stereo not shown) [Example 27, 5-(1-(1-(2-methoxy-phenyl)ethyl)-1H-pyrazol-4-yl)-1-methyl-pyridin-2(1H) one]: the concentration for half-maximal inhibition (IC50) was below 500 nM.

With `COc1cccc(C(C)n2cc(-c3ccc(=O)n(C)c3)cn2)c1` (stereo not shown) [Example 28, 5-(1-(1-(3-methoxy-phenyl)ethyl)-1H-pyrazol-4-yl)-1-methyl-pyridin-2(1H)--one], the IC50 is below 500 nM. The same measure, in the same setting: in the case of `CC(c1ccncc1)n1cc(-c2ccc(=O)n(C)c2)cn1` (stereo not shown) [Example 29, 1-methyl-5-(1-(1-(pyridin-4-yl)ethyl)-1H-pyrazol-4-yl)pyridin-2(1H)-one] it was 500 to 5000 nM; in that of `Cc1c(-c2cnn(C(C)c3ccccc3)c2)cn(C)c(=O)c1C` (stereo not shown) [Example 30, 1,3,4-trimethyl-5-(1-(1-phenylethyl)-1H-pyrazol-4-yl)pyridin-2(1H)-one], below 500 nM; in that of `CC(c1ccccc1)n1cc(-c2cc(Cl)c(=O)n(C)c2)cn1` (stereo not shown) [Example 31, 3-chloro-1-methyl-5-(1-(1-phenylethyl)-1H-pyrazol-4-yl) pyridin-2(1H)-one], below 500 nM. On the same count and under the same terms, the result for `COc1cc(-c2cnn(C(C)c3ccccc3)c2)cn(C)c1=O` (stereo not shown) [Example 32, 3-methoxy-1-methyl-5-(1-(1-phenylethyl)-1H-pyrazol-4-yl) pyridin-2(1H)-one] reads 500 to 5000 nM. Regarding `CC(c1ccccc1)n1cc(-c2cn(C)c(=O)c3c2CCC3)cn1` (stereo not shown) [Example 33, 2-methyl-4-(1-(1-phenylethyl)-1H-pyrazol-4-yl)-2,5,6,7-tetrahydro-1H-cyclopenta[c]pyridin-1-one], the IC50 is below 500 nM. Still for that read-out and setting: the result for `Cc1cc(-c2cnn(C(C)c3ccccc3)c2C)cn(C)c1=O` (stereo not shown) [Example 34, 1,3-dimethyl-5-(5-methyl-1-(1-phenylethyl)-1H-pyrazol-4-yl) pyridin-2(1H)-one] reads below 500 nM; that for `O=c1cc(-c2ccccc2)c(-c2cnn(Cc3ccccc3)c2)cn1C(F)F` [Example 35, 5-(1-benzyl-1H-pyrazol-4-yl)-1-(difluoromethyl)-4-phenyl-pyridin-2(1H)-one], 500 to 5000 nM. On the same count and under the same terms, the result for `CC(C)Oc1cc(=O)n(C)cc1-c1cnn(C(C)c2ccccc2)c1` (stereo not shown) [Example 36, 4-isopropoxy-1-methyl-5-(1-(1-phenylethyl)-1H-pyrazol-4-yl)pyridin-2(1H)-one] reads below 500 nM. In the case of `Cn1cc(-c2cnn(Cc3ccccc3)c2)c(N2CCC(S(C)(=O)=O)C2)cc1=O` (stereo not shown) [Example 37, 5-(1-Benzyl-1H-pyrazol-4-yl)-4-(3-methanesulfonyl-pyrrolidin-1-yl)-1-methyl-1H-pyridin-2-one], the 50% inhibitory concentration (IC50) was below 500 nM. Turning to `CC(c1ccccc1)n1cc(-c2cn(C)c(=O)cc2Cl)cn1` (stereo not shown) [Example 38, 4-chloro-1-methyl-5-(1-(1-phenyl-ethyl)-1H-pyrazol-4-yl) pyridin-2(1H)-one], the half-maximal inhibitory concentration (IC50) is below 500 nM.

`CC(c1ccccc1)n1cc(-c2cn(C)c(=O)cc2N2CCC2)cn1` (stereo not shown) [Example 40, 4-(azetidin-1-yl)-1-methyl-5-(1-(1-phenylethyl)-1H-pyrazol-4-yl) pyridin-2(1H)-one]: the concentration for half-maximal inhibition (IC50) was below 500 nM.

`CNc1cc(=O)n(C)cc1-c1cnn(C(C)c2ccccc2)c1` (stereo not shown) [Example 42, 1-methyl-4-(methyl-amino)-5-(1-(1-phenylethyl)-1H-pyrazol-1-yl) pyridin-2(1H)-one]: the IC50 was below 500 nM.

The same experiment, now with this note: CBP versus BRD4.
Turning to `Cn1cc(-c2cnn(Cc3ccccc3)c2)c(-n2cccc2)cc1=O` [5-(1-benzyl-1H-pyrazol-4-yl)-1-methyl-4-(1H-pyrrol-1-yl)pyridin-2(1H)-one], the “IC50 for CBP compared with BRD4 (selectivity)” value is on record as “lower IC50 for CBP than for BRD4”.
